From ChEMBL document CHEMBL4145634, “Discovery of Janus Kinase 2 (JAK2) and Histone Deacetylase (HDAC) Dual Inhibitors as a Novel Strategy for the Combinational Treatment of Leukemia and Invasive Fungal Infections” (J Med Chem, 2018)
≈ marks a conversion by molar mass, not a printed value. Calls of active or inactive are those of the source. The calls are words filed in the database; no cut-off is given here.

Legend:
K562 = assay: Antiproliferative activity against human K562 cells after 48 hrs by CCK-8 assay; type: functional, cell-based; conditions: K562, 48 h
[1] = target: Tyrosine-protein kinase JAK2 (Homo sapiens, UniProt O60674); assay: Inhibition of JAK2 in human HEL cells assessed as decrease in STAT5 phosphorylation after 24 hrs by Western blot analysis; type: cell-based
Candida albicans [2] = assay: microbe, parasite or virus in culture; type: functional; conditions: Candida albicans, 0710922, 48 h
Description: Antifungal activity against FLC resistant Candida albicans 0710922 after 48 hrs in presence of fluconazol by checkerboard microdilution method

Candida albicans [3] = assay: microbe, parasite or virus in culture; type: functional; conditions: Candida albicans, 0304103, 48 h
Description: Antifungal activity against FLC resistant Candida albicans 0304103 assessed as fluconazol MIC50 after 48 hrs by checkerboard microdilution method

[4] = target: Histone deacetylase 3/NCoR1 (Homo sapiens, UniProt O15379); assay: Inhibition of human recombinant HDAC3/GST-tagged NCOR1 (397 to 503 residues) co-expressed in insect cells using (Ac-Leu-Gly-Lys(Ac)-AMC as substrate preincubated for 5 mins followed by substrate addition and measured after 30 mins by fluorescence assay
Candida albicans [5] = assay: Antifungal activity against FLC resistant Candida albicans 100 after 48 hrs by checkerboard microdilution method; type: functional; conditions: Candida albicans, 100, 48 h
Candida albicans [6] = assay: Antifungal activity against FLC resistant Candida albicans 0304103 at 32 ug/ml up to 24 hrs in presence of fluconazol by checkerboard microdilution method; type: functional, organism-based
[7] = Clearance in ICR mouse liver microsomes at 1 uM measured up to 45 mins in presence of NADPH by LC-MS/MS analysis; type: ADME, microsome; conditions: 0.75 h
[8] = target: Histone deacetylase (Homo sapiens) (UniProt Q13547+O15379+Q9UBN7+Q92769+Q9UQL6+Q8WUI4+Q9BY41+Q96DB2+P56524+Q9UKV0+Q969S8); assay: Inhibition of HDAC in human HEL cells assessed as increased in histone H3 acetylation after 24 hrs by Western blot analysis; type: cell-based
Candida albicans [9] = assay: Antifungal activity against FLC resistant Candida albicans 0304103 at 32 ug/ml up to 24 hrs by checkerboard microdilution method; type: functional, organism-based
Mus musculus [10] = assay: In vivo antifungal activity against FLC resistant Candida albicans 0304103 infected in ICR mouse assessed as mouse survival at 5 mg/kg, ip qd up to 20 days in co-treated with 1 mg/kg, ip qd fluconazol (reference value: 4.5 day); type: functional
Candida albicans [11] = assay: Synergistic antifungal activity against FLC resistant Candida albicans 0304103 assessed as FIC index after 48 hrs by checkerboard microdilution method; type: functional
[12] = target: Tyrosine-protein kinase JAK1 (Homo sapiens, UniProt P23458); assay: Inhibition of JAK1 (unknown origin) using FAM-labeled peptide as substrate preincubated for 10 mins followed by substrate addition and measured after 25 mins in presence of ATP
Candida albicans [13] = assay: microbe, parasite or virus in culture; type: functional; conditions: Candida albicans, 0710922, 48 h; remark: listed apart in the source
Description: Antifungal activity against FLC resistant Candida albicans 0710922 after 48 hrs by checkerboard microdilution method

Histone deacetylase 2 = Histone deacetylase 2 (Homo sapiens, UniProt Q92769); assay: Inhibition of recombinant HDAC2 (unknown origin) using (Ac-Leu-Gly-Lys(Ac)-AMC as substrate preincubated for 5 mins followed by substrate addition and measured after 30 mins by fluorescence assay
Candida albicans [14] = assay: microbe, parasite or virus in culture; type: functional; conditions: Candida albicans, 100, 48 h
Description: Antifungal activity against FLC resistant Candida albicans 100 assessed as fluconazol MIC50 after 48 hrs by checkerboard microdilution method

Candida albicans [15] = assay: microbe, parasite or virus in culture; type: functional; conditions: Candida albicans, 0304103, 48 h; remark: listed apart in the source
Description: Antifungal activity against FLC resistant Candida albicans 0304103 after 48 hrs by checkerboard microdilution method

HEL [16] = assay: Antiproliferative activity against human HEL cells after 48 hrs by CCK-8 assay; type: functional, cell-based
HEL [17] = assay: Induction of apoptosis in human HEL cells after 48 hrs by Annexin-V-FITC/propidium iodide staining based flow cytometry; type: functional, cell-based
Mus musculus [18] = assay: Protection against spleen enlargement in SCID mouse xenografted with human HEL cells at 10 mg/kg, ip qd; type: functional, organism-based
[19] = target: Non-receptor tyrosine-protein kinase TYK2 (Homo sapiens, UniProt P29597); assay: Inhibition of TYK2 (unknown origin) using FAM-labeled peptide as substrate preincubated for 10 mins followed by substrate addition and measured after 25 mins in presence of ATP
[20] = target: T1, Tyrosine-protein kinase JAK3 (Homo sapiens, UniProt P52333); assay: Inhibition of JAK3 (unknown origin) using FAM-labeled peptide as substrate preincubated for 10 mins followed by substrate addition and measured after 25 mins in presence of ATP
T1 sequence (P52333 whole entry): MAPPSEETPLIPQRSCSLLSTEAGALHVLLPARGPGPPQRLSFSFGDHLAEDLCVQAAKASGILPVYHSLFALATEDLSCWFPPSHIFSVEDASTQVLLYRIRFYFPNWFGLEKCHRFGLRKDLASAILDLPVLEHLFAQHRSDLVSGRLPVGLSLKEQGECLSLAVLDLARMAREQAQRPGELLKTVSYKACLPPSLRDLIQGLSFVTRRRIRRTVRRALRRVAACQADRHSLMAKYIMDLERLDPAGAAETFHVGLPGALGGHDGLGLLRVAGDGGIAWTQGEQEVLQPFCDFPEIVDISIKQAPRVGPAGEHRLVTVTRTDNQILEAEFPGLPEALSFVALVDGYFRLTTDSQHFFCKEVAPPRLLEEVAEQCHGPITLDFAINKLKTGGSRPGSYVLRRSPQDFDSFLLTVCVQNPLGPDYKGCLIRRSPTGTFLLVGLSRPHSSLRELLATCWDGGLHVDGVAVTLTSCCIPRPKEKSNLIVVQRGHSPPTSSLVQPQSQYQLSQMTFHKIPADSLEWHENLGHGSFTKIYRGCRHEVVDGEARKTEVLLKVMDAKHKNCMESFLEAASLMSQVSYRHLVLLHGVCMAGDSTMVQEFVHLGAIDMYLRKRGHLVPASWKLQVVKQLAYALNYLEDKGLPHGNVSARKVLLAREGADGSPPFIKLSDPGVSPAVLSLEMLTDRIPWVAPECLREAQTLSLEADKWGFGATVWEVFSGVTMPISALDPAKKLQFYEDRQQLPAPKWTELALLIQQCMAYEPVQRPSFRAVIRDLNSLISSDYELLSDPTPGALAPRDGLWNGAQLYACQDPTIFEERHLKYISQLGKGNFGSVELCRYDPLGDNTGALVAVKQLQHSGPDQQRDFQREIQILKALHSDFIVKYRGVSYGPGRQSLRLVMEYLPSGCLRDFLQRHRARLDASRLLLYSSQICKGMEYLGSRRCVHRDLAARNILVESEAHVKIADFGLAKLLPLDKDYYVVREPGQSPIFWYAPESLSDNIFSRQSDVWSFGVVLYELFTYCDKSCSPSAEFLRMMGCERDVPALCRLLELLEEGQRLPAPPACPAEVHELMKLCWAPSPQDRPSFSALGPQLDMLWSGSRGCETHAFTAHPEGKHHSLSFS

HEL [21] = assay: Induction of apoptosis in human HEL cells at 10 uM after 48 hrs by Annexin-V-FITC/propidium iodide staining based flow cytometry relative to control; type: functional
Candida albicans [22] = assay: Synergistic antifungal activity against FLC resistant Candida albicans 100 assessed as FIC index after 48 hrs by checkerboard microdilution method; type: functional
HL-60 = assay: Antiproliferative activity against human HL60 cells after 48 hrs by CCK-8 assay; type: functional, cell-based; conditions: HL-60, 48 h

Chain of Histone deacetylase 2 (Q92769 whole entry): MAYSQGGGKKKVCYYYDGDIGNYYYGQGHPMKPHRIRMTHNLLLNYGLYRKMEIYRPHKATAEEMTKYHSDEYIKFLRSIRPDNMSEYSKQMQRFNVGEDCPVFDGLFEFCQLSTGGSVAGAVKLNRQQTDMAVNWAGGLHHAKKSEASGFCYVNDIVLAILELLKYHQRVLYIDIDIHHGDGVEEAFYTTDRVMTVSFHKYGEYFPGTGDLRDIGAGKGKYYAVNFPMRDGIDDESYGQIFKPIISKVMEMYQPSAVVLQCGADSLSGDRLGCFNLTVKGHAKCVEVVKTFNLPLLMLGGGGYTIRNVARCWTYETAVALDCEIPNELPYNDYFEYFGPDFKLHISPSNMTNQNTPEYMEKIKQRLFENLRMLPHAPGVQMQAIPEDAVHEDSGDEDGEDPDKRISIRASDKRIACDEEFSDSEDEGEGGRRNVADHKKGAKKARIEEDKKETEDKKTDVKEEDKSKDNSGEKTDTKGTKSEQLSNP
Chain of Tyrosine-protein kinase JAK1 (P23458 whole entry): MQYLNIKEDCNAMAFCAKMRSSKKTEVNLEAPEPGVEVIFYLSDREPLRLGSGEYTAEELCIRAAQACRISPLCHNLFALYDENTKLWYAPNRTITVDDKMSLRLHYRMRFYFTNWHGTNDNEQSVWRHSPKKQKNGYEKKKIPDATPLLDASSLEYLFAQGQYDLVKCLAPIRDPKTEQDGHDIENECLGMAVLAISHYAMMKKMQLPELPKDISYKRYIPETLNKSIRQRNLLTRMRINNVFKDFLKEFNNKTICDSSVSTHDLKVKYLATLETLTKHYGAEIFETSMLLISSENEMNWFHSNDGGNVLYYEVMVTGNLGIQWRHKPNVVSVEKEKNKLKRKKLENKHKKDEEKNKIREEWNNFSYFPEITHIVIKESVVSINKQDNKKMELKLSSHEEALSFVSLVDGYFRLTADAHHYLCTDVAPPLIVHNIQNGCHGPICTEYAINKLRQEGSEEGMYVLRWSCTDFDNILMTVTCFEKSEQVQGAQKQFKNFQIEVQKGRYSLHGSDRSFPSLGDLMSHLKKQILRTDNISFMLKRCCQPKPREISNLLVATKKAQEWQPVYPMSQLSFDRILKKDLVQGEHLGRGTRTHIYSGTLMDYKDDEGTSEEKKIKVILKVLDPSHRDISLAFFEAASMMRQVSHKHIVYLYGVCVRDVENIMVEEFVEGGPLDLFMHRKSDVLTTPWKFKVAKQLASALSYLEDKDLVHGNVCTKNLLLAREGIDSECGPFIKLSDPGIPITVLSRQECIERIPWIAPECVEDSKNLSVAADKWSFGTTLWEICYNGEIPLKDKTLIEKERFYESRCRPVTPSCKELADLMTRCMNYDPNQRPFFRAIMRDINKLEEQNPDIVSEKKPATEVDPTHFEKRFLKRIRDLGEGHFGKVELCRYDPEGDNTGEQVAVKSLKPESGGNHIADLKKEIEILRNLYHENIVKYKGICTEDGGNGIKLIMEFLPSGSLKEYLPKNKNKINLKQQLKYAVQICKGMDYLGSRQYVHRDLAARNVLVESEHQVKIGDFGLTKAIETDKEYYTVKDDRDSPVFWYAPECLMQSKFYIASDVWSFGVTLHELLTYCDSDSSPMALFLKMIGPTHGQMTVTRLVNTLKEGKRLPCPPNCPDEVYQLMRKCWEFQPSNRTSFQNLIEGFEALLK
Chain of Histone deacetylase 3/NCoR1 (O15379 whole entry, the tested form may be a part): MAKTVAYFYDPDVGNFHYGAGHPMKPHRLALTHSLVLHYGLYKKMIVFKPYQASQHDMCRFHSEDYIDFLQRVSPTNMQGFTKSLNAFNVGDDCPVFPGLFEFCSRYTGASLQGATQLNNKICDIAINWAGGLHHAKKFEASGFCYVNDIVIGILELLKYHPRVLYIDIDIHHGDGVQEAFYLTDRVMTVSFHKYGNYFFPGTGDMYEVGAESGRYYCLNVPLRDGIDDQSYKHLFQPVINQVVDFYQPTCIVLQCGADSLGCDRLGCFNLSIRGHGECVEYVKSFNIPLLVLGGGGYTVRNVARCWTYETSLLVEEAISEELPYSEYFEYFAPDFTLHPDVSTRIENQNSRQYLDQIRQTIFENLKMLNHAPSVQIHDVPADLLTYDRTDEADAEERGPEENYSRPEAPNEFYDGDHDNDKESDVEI
Chain of Histone deacetylase 3/NCoR1 (O75376 whole entry, further chain, the tested form may be a part): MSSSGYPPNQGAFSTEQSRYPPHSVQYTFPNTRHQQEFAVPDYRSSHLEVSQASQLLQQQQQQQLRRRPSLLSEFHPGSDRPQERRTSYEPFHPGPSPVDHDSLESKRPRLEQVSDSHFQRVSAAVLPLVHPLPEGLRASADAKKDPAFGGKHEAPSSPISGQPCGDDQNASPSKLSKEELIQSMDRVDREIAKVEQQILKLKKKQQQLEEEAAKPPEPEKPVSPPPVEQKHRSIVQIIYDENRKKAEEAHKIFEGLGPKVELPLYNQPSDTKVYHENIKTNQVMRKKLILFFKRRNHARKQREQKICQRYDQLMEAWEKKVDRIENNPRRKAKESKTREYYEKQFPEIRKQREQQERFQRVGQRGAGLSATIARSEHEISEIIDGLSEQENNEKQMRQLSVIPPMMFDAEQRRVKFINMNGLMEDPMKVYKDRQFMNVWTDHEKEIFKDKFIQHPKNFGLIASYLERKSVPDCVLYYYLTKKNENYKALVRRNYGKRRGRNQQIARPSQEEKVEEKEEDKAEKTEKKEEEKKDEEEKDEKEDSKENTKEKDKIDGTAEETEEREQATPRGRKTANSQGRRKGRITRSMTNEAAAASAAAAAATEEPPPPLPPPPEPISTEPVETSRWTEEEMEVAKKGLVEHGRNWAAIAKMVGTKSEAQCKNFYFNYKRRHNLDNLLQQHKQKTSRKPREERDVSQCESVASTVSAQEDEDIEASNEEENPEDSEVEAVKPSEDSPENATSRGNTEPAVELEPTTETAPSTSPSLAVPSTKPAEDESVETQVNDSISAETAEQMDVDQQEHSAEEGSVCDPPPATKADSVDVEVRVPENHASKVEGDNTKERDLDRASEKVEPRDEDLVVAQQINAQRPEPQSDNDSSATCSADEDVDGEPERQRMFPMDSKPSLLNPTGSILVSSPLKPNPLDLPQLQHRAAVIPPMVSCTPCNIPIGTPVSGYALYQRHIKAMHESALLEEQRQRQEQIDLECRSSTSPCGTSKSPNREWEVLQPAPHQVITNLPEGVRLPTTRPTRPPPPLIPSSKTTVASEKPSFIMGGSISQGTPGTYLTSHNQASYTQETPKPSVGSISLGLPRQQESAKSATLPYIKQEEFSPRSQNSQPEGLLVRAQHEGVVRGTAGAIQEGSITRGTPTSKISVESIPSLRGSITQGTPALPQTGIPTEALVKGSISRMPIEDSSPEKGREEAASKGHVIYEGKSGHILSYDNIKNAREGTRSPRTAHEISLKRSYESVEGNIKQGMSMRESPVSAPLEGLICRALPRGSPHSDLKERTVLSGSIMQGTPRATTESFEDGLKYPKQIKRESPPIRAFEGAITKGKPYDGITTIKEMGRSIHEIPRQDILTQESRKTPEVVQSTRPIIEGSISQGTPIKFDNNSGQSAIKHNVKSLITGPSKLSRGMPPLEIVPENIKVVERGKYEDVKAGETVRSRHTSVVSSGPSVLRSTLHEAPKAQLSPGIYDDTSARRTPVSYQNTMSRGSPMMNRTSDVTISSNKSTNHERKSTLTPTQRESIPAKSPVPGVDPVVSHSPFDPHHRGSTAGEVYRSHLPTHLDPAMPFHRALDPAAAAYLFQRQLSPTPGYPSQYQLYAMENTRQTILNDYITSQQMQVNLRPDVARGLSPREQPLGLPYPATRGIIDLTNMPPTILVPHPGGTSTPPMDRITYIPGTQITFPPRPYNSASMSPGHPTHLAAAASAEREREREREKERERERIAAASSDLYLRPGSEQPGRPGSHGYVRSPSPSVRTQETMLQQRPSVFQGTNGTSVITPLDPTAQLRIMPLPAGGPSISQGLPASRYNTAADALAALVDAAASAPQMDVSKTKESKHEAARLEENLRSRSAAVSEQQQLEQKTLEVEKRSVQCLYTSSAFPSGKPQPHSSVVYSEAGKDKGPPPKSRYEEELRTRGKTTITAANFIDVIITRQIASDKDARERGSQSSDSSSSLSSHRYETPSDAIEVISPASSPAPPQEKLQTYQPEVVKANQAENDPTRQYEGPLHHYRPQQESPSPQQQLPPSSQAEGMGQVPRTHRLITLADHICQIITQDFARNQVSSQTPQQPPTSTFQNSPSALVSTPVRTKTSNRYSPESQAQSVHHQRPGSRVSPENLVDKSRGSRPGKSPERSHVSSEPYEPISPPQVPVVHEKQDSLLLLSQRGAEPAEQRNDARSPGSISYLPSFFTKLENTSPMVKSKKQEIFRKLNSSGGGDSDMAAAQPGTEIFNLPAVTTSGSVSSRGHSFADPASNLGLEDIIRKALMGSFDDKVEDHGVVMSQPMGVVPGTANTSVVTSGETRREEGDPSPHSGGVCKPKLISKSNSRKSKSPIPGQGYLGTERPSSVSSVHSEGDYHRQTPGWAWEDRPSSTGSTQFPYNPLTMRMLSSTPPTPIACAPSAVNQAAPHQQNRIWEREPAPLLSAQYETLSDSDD

SMILES	IC50 (K562) [nM]	inhibition [1]	MIC50 (Candida albicans [2]) [µg/mL]	MIC50 (Candida albicans [3]) [µg/mL]	IC50 [4] [nM]	MIC50 (Candida albicans [5]) [µg/mL]	Activity (Candida albicans [6])	CLH [7] [µL/min/mg]	inhibition [8]	Activity (Candida albicans [9])	MST (Mus musculus [10]) [days]	fractional inhibitory concentration index (FICI) (Candida albicans [11])	IC50 [12] [nM]	MIC50 (Candida albicans [13]) [µg/mL]	IC50 (Histone deacetylase 2) [nM]	MIC50 (Candida albicans [14]) [µg/mL]	MIC50 (Candida albicans [15]) [µg/mL]	IC50 (HEL [16]) [nM]	Activity (HEL [17])	Activity (Mus musculus [18])	further results
CS(=O)(=O)Nc1ccc(-c2ccnc(Nc3ccc(N4CCC(C(=O)NCCCCCCCC(=O)NO)CC4)cc3)n2)cc1	5900	Dose-dependent effect	16 (≈ 25.7 µM)	0.25 (≈ 0.401 µM)	17	> 64	Active	88.1	Dose-dependent effect	inactive	13	0.13	76	> 64	132	0.5 (≈ 0.802 µM)	> 64	1800	Dose-dependent effect	Active	IC50 [19]: 74 nM; IC50 [20]: 144 nM; Activity (HEL [21]): 89.2%; fractional inhibitory concentration index (FICI) (Candida albicans [22]): 0.13; IC50 (HL-60): > 50000 nM
CS(=O)(=O)Nc1ccc(-c2ccnc(Nc3ccc(N4CCC(C(=O)Nc5ccc(/C=C/C(=O)NO)cc5)CC4)cc3)n2)cc1	8700	Dose-dependent effect	8 (≈ 12.7 µM)	0.5 (≈ 0.797 µM)	234	> 64	Active	71.6	Dose-dependent effect	inactive	11.5	0.07	359	> 64	7470	0.5 (≈ 0.797 µM)	> 64	340	Dose-dependent effect	Active	IC50 [19]: 46 nM; IC50 [20]: 121 nM; Activity (HEL [21]): 70.62%; fractional inhibitory concentration index (FICI) (Candida albicans [22]): 0.07; IC50 (HL-60): 1500 nM
O=C(NO)c1ccc(-c2ccnc(Nc3ccc(N4CCOCC4)cc3)n2)cc1	4000	Dose-dependent effect	16 (≈ 40.9 µM)	0.5 (≈ 1.28 µM)	45	> 64	Active	83.8	Dose-dependent effect	inactive	11	0.07	69	> 64	1700	0.5 (≈ 1.28 µM)	> 64	3500	Dose-dependent effect	Active	IC50 [19]: 419 nM; IC50 [20]: 517 nM; Activity (HEL [21]): 86.2%; fractional inhibitory concentration index (FICI) (Candida albicans [22]): 0.13; IC50 (HL-60): 6100 nM
